Source: patent US12319675B2 (Artax Biopharma Inc., priority 2018, dated 2025)

Columns and labels:
[1] = test system: CD3 mediated phosphorylation of ZAP70 in Jurkat cells; test: CD3 mediated phosphorylation of ZAP70 in Jurkat cells (HTRF); assay type: cell-based; details: Homo sapiens, Jurkat cells stimulated with 20 μg/mL anti-CD3 antibody; for Emax: maximum inhibition, read-out: pZAP70 Inhibition - Maximum Percent Inhibition (% Inhibition); for IC50: read-out: pZAP70 Inhibition IC50
Experimental: Inhibition of CD3 mediated phosphorylation of ZAP70 in Jurkat cells was measured by a cellular based Homogeneous Time-Resolved Fluorescence (HTRF) assay utilizing a Total ZAP-70 HTRF kit.
Briefly, Jurkat cells (˜1.3×10^6 cells/mL) were harvested on the day of experimentation. Cells were washed with PBS and resuspended in Assay Buffer (RPMI 1640 media plus 10% FBS) and counted.
Jurkat cells were seeded in Assay media at a total volume of 4 μL/well (40K cells/well) in a 384-low volume white flat bottom plate. The cells were then incubated at 37° C./5% CO2 for 30 minutes. The cells were then treated in duplicate with test compounds (3×) and reference compounds (3×) in a total volume of 4 μL, respectively. A compound dilution scheme is exemplified in FIG. 1.
The plate was then transferred to an incubator maintained at 37° C./5% CO2 for 2 minutes. Following incubation, cells were stimulated with 20 μg/mL of anti-CD3 antibody (1 mg/mL stock) and assay media was used to bring the total well volume 4 μL/well. The plate was then transferred to the incubator maintained at 37° C./5% CO2 for 2.5 minutes. Following incubation, 4 μL of lysis buffer (4×) provided in the kit was added to each well. The plate was then incubated at RT for 1 hour with gentle shaking. Following incubation, 4 μL of detection mix was added to each well and the plate was sealed with a plate sealer and left overnight at RT in the dark.
The Envision reader was set-up for Eu^3+ cryptate and fluorescence emission was read at two different wavelengths (620 nm and 665 nm). • Excitation filter: UV2(TRF) 320 nm • Emission filter: 665 nm • 2nd Emission filter: Europium 615 nm • Measurement height (mm): 6.5 • Excitation light (%): 100 • Delay (μs): 50 • Window time (μs): 400 • Time between flashes (μs): 2000 • Number of flashes: 100 • Number of flashes for 2nd detector: 100
The data is represented by the signal form the two wavelengths:
The ratio of the signal is calculated for each individual well:
The data was plotted using Graph Pad Prism. The significance between untreated vs. treated groups was assessed by One-way ANOVA and Bonferroni posttest comparing all columns in the graph.
ZAP70 IC50 results are shown in Table 6 for select compounds of the invention. The compound numbers correspond to the compound numbers in Table 1. […] “ND” indicates not determined.
ZAP70 percent maximum inhibition results are shown in Table 7 for select compounds of the invention. The compound numbers correspond to the compound numbers in Table 1.

[2] = Microsomal stability assay, mouse; assay type: in vitro ADME; details: mouse microsomes, read-out: Microsomal Stability (T1/2 min) Mouse
Experimental: (§1) Microsomal stability assays were performed using mouse, rat, and human […] according to methods well-known in the art. Microsomal stability results are shown in Table 2 for selected compounds of the invention. The compound numbers correspond to the compound numbers in Table 1. […] “N/A” indicates not assayed.

[3] = Microsomal stability assay, rat; assay type: in vitro ADME; details: rat microsomes, read-out: Microsomal Stability (T1/2 min) Rat
Experimental: as §1

[4] = Microsomal stability assay, human; assay type: in vitro ADME; details: human microsomes, read-out: Microsomal Stability (T1/2 min) Human
Experimental: as §1

IC50 [1] [nM]	half-life [2] [min]	half-life [3] [min]	half-life [4] [min]	SMILES	Emax [1] [%]
1 to 10	–	–	–	CC(C)(COc1ccc2c(c1)C(c1ccc(C(F)(F)F)cc1)=C(CN1CCCC1)CO2)C(=O)O [Compound I-81]	> 50
–	< 10	< 10	10 to 30	O=C(C1=C(c2ccc(F)cc2)c2cc(OC(F)(F)F)ccc2OC1)N1CCCC1 [Compound I-7]	–
1 to 10	10 to 30	< 10	> 30	Fc1ccc(C2=C(CN3CCCC3)COc3ccc(F)cc32)cc1 [Compound I-63, 1-((6-fluoro-4-(4-fluorophenyl)-2H-chromen-3-yl)methyl)pyrrolidine]	30 to 40
1 to 10	10 to 30	< 10	> 30	CC(C)(O)CCOc1ccc2c(c1)C(c1ccc(F)cc1)=C(CN1CCCC1)CO2 [Compound I-35, 4-((4-(4-fluorophenyl)-3-(pyrrolidin-1-ylmethyl)-2H-chromen-6-yl)oxy)-2-methylbutan-2-ol]	≤ 30
< 1	> 30	> 30	> 30	Fc1ccc(C2=C(CN3CCCC3)COc3ccc(OCCc4nnn[nH]4)cc32)cc1 [Compound I-34, 5-(2-((4-(4-fluorophenyl)-3-(pyrrolidin-1-ylmethyl)-2H-chromen-6-yl)oxy)ethyl)-1H-tetrazole]	30 to 40
1 to 10	–	–	–	CN1CCN(CC2=C(c3ccc(F)cc3)c3cc(OCCC(=O)O)ccc3OC2)CC1 [Compound I-64]	30 to 40
1 to 10	< 10	< 10	10 to 30	CN(C)CCNCC1=C(c2ccc(F)cc2)c2cc(F)ccc2OC1 [Compound I-61, N′-((6-fluoro-4-(4-fluorophenyl)-2H-chromen-3-yl)methyl)-N^2,N^2-dimethylethane-1,2-diamine]	40 to 50
1 to 10	–	–	–	CC(C)(COc1ccc2c(c1)C(c1ccc(F)cc1)=C(CN1CCOCC1)CO2)C(=O)O [Compound I-80]	> 50
1 to 10	> 30	> 30	> 30	Fc1ccc(C2=C(CN3CCCC3)COc3ccc(OCCN4CCCCC4)cc32)cc1 [Compound I-39, 1-(2-((4-(4-fluorophenyl)-3-(pyrrolidin-1-ylmethyl)-2H-chromen-6-yl)oxy)ethyl)piperidine]	≤ 30
< 1	–	–	–	O=C(O)CCOc1ccc2c(c1)C(c1ccc(C(F)(F)F)cc1)=C(CN1CCCC1)CO2 [Compound I-68]	> 50
1 to 10	–	–	–	O=C(C1=C(c2ccc(F)cc2)c2cc(F)ccc2OC1)N1CCCC1 [Compound I-62]	30 to 40
1 to 10	–	–	–	CN(C)CCNCC1=C(c2ccc(C(F)(F)F)cc2)c2cc(OCCC(=O)O)ccc2OC1 [Compound I-70]	40 to 50
1 to 10	> 30	> 30	> 30	CN1CCN(CC2=C(c3ccc(F)cc3)c3cc(OC(F)(F)F)ccc3OC2)CC1 [Compound I-11, 1-((4-(4-fluorophenyl)-6-(trifluoromethoxy)-2H-chromen-3-yl)methyl)-4-methylpiperazine]	≤ 30
> 50	< 10	< 10	> 30	CN1CCN(C(=O)C2=C(c3ccc(F)cc3)c3cc(F)ccc3OC2)CC1 [Compound I-58, (6-fluoro-4-(4-fluorophenyl)-2H-chromen-3-yl)(4-methylpiperazin-1-yl)methanone]	30 to 40
1 to 10	–	–	–	CN1CCN(CC2=C(c3ccc(C(F)(F)F)cc3)c3cc(OCCC(=O)O)ccc3OC2)CC1 [Compound I-69]	> 50
1 to 10	–	–	–	CC(C)(COc1ccc2c(c1)C(c1ccc(F)cc1)=C(CN1CCCC1)CO2)C(=O)O [Compound I-66]	> 50
1 to 10	> 30	> 30	< 10	O=C(C1=C(c2ccc(F)cc2)c2cc(OCCN3CCCCC3)ccc2OC1)N1CCCC1 [Compound I-41]	30 to 40
1 to 10	–	–	–	CC(C)(COc1ccc2c(c1)C(c1ccc(C(F)(F)F)cc1)=C(CN1CCOCC1)CO2)C(=O)O [Compound I-79]	> 50
10 to 50	< 10	> 30	< 10	CN1CCN(CCOc2ccc3c(c2)C(c2ccc(F)cc2)=C(C(=O)N2CCCC2)CO3)CC1 [Compound I-43]	30 to 40
< 1	10 to 30	< 10	> 30	CN1CCN(CC2=C(c3ccc(F)cc3)c3cc(F)ccc3OC2)CC1 [Compound I-59, 1-((6-fluoro-4-(4-fluorophenyl)-2H-chromen-3-yl)methyl)-4-methylpiperazine]	30 to 40
< 1	10 to 30	10 to 30	> 30	N/C(CCOc1ccc2c(c1)C(c1ccc(F)cc1)=C(CN1CCCC1)CO2)=N\O [Compound I-36, 3-((4-(4-fluorophenyl)-3-(pyrrolidin-1-ylmethyl)-2H-chromen-6-yl)oxy)-N-hydroxypropanimidamide]	40 to 50
1 to 10	> 30	10 to 30	> 30	O=c1[nH]c(CCOc2ccc3c(c2)C(c2ccc(F)cc2)=C(CN2CCCC2)CO3)no1 [Compound I-37, 3-(2-((4-(4-fluorophenyl)-3-(pyrrolidin-1-ylmethyl)-2H-chromen-6-yl)oxy)ethyl)-1,2,4-oxadiazol-5(2H)-one]	30 to 40
> 50	< 10	< 10	< 10	CN1CCN(C(=O)C2=C(c3ccc(F)cc3)c3cc(OC4CC4)ccc3OC2)CC1 [Compound I-27]	≤ 30
10 to 50	–	–	–	O=C(O)CCCOc1ccc2c(c1)C(c1ccc(F)cc1)=C(CN1CCCC1)CO2 [Compound I-67]	> 50

SMILES	IC50 [1] [nM]	half-life [2] [min]	half-life [3] [min]	half-life [4] [min]	Emax [1] [%]
CC(C)(O)CCOc1ccc2c(c1)C(c1ccc(F)cc1)=C(C(=O)N1CCCC1)CO2 [Compound I-42, (4-(4-fluorophenyl)-6-(3-hydroxy-3-methylbutoxy)-2H-chromen-3-yl)(pyrrolidin-1-yl)methanone]	> 50	< 10	10 to 30	< 10	≤ 30
